According to ChEMBL document CHEMBL1201862, “PubChem BioAssay data set” (2004):
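Values below derive from 48-hour exposures of cells grown in 96-well plates, with endpoints linearly interpolated between the two concentrations bracketing the appropriate inhibition level. GI50 = concentration required for 50% inhibition of growth.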 The source made the active and inactive calls. No stated cut-off is given here; in the data, active = GI50 up to about 1.1 µM and inactive = higher.

Tests used:
Test in all cases: NCI tumour cell line growth inhibition, 48 h
[1] = system: RPMI-8226
[2] = system: NCI-H460
[3] = system: OVCAR-3
[4] = system: HT-29
[5] = system: CCRF-CEM
[6] = system: MDA-N
[7] = system: NCI/ADR-RES
[8] = system: MDA-MB-231
[9] = system: HOP-62
[10] = system: HCT-116
[11] = system: 786-0
[12] = system: U-251
[13] = system: LOX IMVI
[14] = system: OVCAR-4
[15] = system: MDA-MB-435
[16] = system: SW-620
[17] = system: SR
[18] = system: Hs-578T
[19] = system: SK-OV-3
[20] = system: M14
[21] = system: ACHN
[22] = system: OVCAR-8
[23] = system: HCC 2998
[24] = system: PC-3
[25] = system: MOLT-4
[26] = system: IGROV-1
[27] = system: SK-MEL-2
[28] = system: SF-539
[29] = system: NCI-H23
[30] = system: OVCAR-5
[31] = system: RXF 393
[32] = system: EKVX
[33] = system: MCF7
[34] = system: HL-60
[35] = system: SF-268
[36] = system: NCI-H522
[37] = system: SK-MEL-28
[38] = system: A498
[39] = system: CAKI-1
[40] = system: K562
[41] = system: NCI-H226
[42] = system: TK-10
[43] = system: HCT-15
[44] = system: SF-295
[45] = system: T47D
[46] = system: DU-145
[47] = system: KM12
[48] = system: SNB-75
[49] = system: SK-MEL-5
[50] = system: UO-31
[51] = system: UACC-257
[52] = system: HOP-92
[53] = system: A549
[54] = system: Malme-3M
[55] = system: SN12C
[56] = system: SNB-19
[57] = system: COLO 205
[58] = system: UACC-62

Q: With `CC1=NN(c2cccc(Cl)c2)C(=N/c2nc3ccccc3s2)/C1=C\c1ccccc1O` as the molecule, how does the GI50 [1] read?
A: 34.8 µM (inactive)

Q: What about the GI50 [2] of the same molecule?
A: 27.1 µM (inactive)

Q: And the GI50 [3]?
A: 19.2 µM (inactive)

Q: And the GI50 [4]?
A: 39.7 µM (inactive)

Q: What about the GI50 [5] of the same molecule?
A: 35.9 µM (inactive)

Q: What about the GI50 [6] of the same molecule?
A: 30.4 µM (inactive)

Q: And the GI50 [7]?
A: 24 µM (inactive)

Q: What about the GI50 [8] of the same molecule?
A: 21 µM (inactive)

Q: What about the GI50 [9] of the same molecule?
A: 29.6 µM (inactive)

Q: And the GI50 [10]?
A: 26.7 µM (inactive)

Q: And the GI50 [11]?
A: 30.1 µM (inactive)

Q: What about the GI50 [12] of the same molecule?
A: 23.8 µM (inactive)

Q: What about the GI50 [13] of the same molecule?
A: 19.9 µM (inactive)

Q: What about the GI50 [14] of the same molecule?
A: 47.5 µM (inactive)

Q: And the GI50 [15]?
A: 33.6 µM (inactive)

Q: What about the GI50 [16] of the same molecule?
A: 31.6 µM (inactive)

Q: What about the GI50 [17] of the same molecule?
A: 40.6 µM (inactive)

Q: And the GI50 [18]?
A: 22 µM (inactive)

Q: What about the GI50 [19] of the same molecule?
A: 26 µM (inactive)

Q: And the GI50 [20]?
A: 38 µM (inactive)

Q: What about the GI50 [21] of the same molecule?
A: 25.6 µM (inactive)

Q: What about the GI50 [22] of the same molecule?
A: 27.4 µM (inactive)

Q: What about the GI50 [23] of the same molecule?
A: 19.6 µM (inactive)

Q: What about the GI50 [24] of the same molecule?
A: 20.5 µM (inactive)

Q: And the GI50 [25]?
A: 34.2 µM (inactive)

Q: What about the GI50 [26] of the same molecule?
A: 19.7 µM (inactive)

Q: What about the GI50 [27] of the same molecule?
A: 18.9 µM (inactive)

Q: What about the GI50 [28] of the same molecule?
A: 42.8 µM (inactive)

Q: And the GI50 [29]?
A: 27.5 µM (inactive)

Q: What about the GI50 [30] of the same molecule?
A: 61.7 µM (inactive)

Q: And the GI50 [31]?
A: 38.1 µM (inactive)

Q: And the GI50 [32]?
A: 64.9 µM (inactive)

Q: And the GI50 [33]?
A: 29.3 µM (inactive)

Q: And the GI50 [34]?
A: 28.1 µM (inactive)

Q: And the GI50 [35]?
A: 24.2 µM (inactive)

Q: And the GI50 [36]?
A: 20 µM (inactive)

Q: And the GI50 [37]?
A: 27.4 µM (inactive)

Q: What about the GI50 [38] of the same molecule?
A: 23.2 µM (inactive)

Q: What about the GI50 [39] of the same molecule?
A: 33.7 µM (inactive)

Q: What about the GI50 [40] of the same molecule?
A: 37 µM (inactive)

Q: What about the GI50 [41] of the same molecule?
A: 22.2 µM (inactive)

Q: And the GI50 [42]?
A: 37.7 µM (inactive)

Q: What about the GI50 [43] of the same molecule?
A: 27.6 µM

Q: What about the GI50 [44] of the same molecule?
A: 30.5 µM (inactive)

Q: What about the GI50 [45] of the same molecule?
A: 36.4 µM (inactive)

Q: And the GI50 [46]?
A: 43.8 µM (inactive)

Q: And the GI50 [47]?
A: 38.9 µM (inactive)

Q: What about the GI50 [48] of the same molecule?
A: 25.4 µM (inactive)

Q: And the GI50 [49]?
A: 19.7 µM (inactive)

Q: What about the GI50 [50] of the same molecule?
A: 34 µM (inactive)

Q: And the GI50 [51]?
A: 21.9 µM (inactive)

Q: What about the GI50 [52] of the same molecule?
A: 24.4 µM (inactive)

Q: `O=C1Cc2c([nH]c3ccc(Br)cc23)-c2ccccc2N1` [KENPAULLONE] was tested. Which GI50 [1] did it give?
A: > 20.5 µM (inactive)

Q: What about the GI50 [2] of the same molecule?
A: > 100 µM (inactive)

Q: What about the GI50 [3] of the same molecule?
A: 3.95 µM (inactive)

Q: And the GI50 [4]?
A: 5.19 µM (inactive)

Q: What about the GI50 [5] of the same molecule?
A: 5.55 µM (inactive)

Q: And the GI50 [6]?
A: > 100 µM (inactive)

Q: What about the GI50 [53] of the same molecule?
A: > 90.2 µM (inactive)

Q: What about the GI50 [54] of the same molecule?
A: > 100 µM (inactive)

Q: And the GI50 [7]?
A: > 100 µM (inactive)

Q: What about the GI50 [8] of the same molecule?
A: > 100 µM (inactive)

Q: What about the GI50 [9] of the same molecule?
A: 65.8 µM (inactive)

Q: And the GI50 [55]?
A: > 100 µM (inactive)

Q: What about the GI50 [11] of the same molecule?
A: > 46.3 µM (inactive)

Q: And the GI50 [12]?
A: > 51.5 µM (inactive)

Q: What about the GI50 [13] of the same molecule?
A: 5.35 µM (inactive)

Q: And the GI50 [14]?
A: > 100 µM (inactive)

Q: What about the GI50 [56] of the same molecule?
A: > 78.5 µM (inactive)

Q: What about the GI50 [15] of the same molecule?
A: > 100 µM (inactive)

Q: What about the GI50 [17] of the same molecule?
A: 4.21 µM (inactive)

Q: What about the GI50 [57] of the same molecule?
A: > 100 µM (inactive)

Q: And the GI50 [18]?
A: > 100 µM (inactive)

Q: What about the GI50 [19] of the same molecule?
A: > 100 µM (inactive)

Q: And the GI50 [20]?
A: > 100 µM (inactive)

Q: What about the GI50 [21] of the same molecule?
A: > 100 µM (inactive)

Q: What about the GI50 [22] of the same molecule?
A: > 100 µM (inactive)

Q: What about the GI50 [23] of the same molecule?
A: > 100 µM (inactive)

Q: And the GI50 [24]?
A: > 100 µM (inactive)

Q: What about the GI50 [25] of the same molecule?
A: 13.5 µM (inactive)

Q: And the GI50 [26]?
A: 9.75 µM (inactive)

Q: What about the GI50 [27] of the same molecule?
A: > 100 µM (inactive)

Q: What about the GI50 [28] of the same molecule?
A: 2.43 µM (inactive)

Q: What about the GI50 [29] of the same molecule?
A: > 100 µM (inactive)

Q: And the GI50 [30]?
A: > 100 µM (inactive)

Q: And the GI50 [31]?
A: 5.11 µM (inactive)

Q: What about the GI50 [32] of the same molecule?
A: > 100 µM (inactive)

Q: And the GI50 [34]?
A: 5.21 µM (inactive)

Q: What about the GI50 [35] of the same molecule?
A: > 75.5 µM (inactive)

Q: What about the GI50 [36] of the same molecule?
A: > 100 µM (inactive)

Q: And the GI50 [58]?
A: > 100 µM (inactive)

Q: What about the GI50 [37] of the same molecule?
A: > 62.4 µM (inactive)

Q: What about the GI50 [38] of the same molecule?
A: > 100 µM (inactive)

Q: What about the GI50 [40] of the same molecule?
A: > 54.8 µM (inactive)

Q: What about the GI50 [41] of the same molecule?
A: > 100 µM (inactive)

Q: What about the GI50 [42] of the same molecule?
A: > 100 µM (inactive)

Q: What about the GI50 [43] of the same molecule?
A: 4.46 µM

Q: And the GI50 [44]?
A: > 100 µM (inactive)

Q: And the GI50 [45]?
A: > 100 µM (inactive)

Q: What about the GI50 [46] of the same molecule?
A: > 100 µM (inactive)

Q: And the GI50 [47]?
A: 2.73 µM (inactive)

Q: And the GI50 [48]?
A: > 50.8 µM (inactive)

Q: What about the GI50 [49] of the same molecule?
A: > 28.4 µM (inactive)

Q: And the GI50 [50]?
A: > 100 µM (inactive)

Q: And the GI50 [51]?
A: > 100 µM (inactive)

Q: And the GI50 [52]?
A: > 100 µM (inactive)
